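Each compound was tested at five concentrations against cells in 96-well plates for 48 hours. At the GI50, growth is halved.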 Calls of active or inactive are those of the source. Rule as the data show it: active = GI50 up to about 1.1 µM and inactive = higher.
Experiments:
Assay in all cases: NCI anticancer screen, dose series, 48 h
[1] = system: 786-0
[2] = system: A549
[3] = system: ACHN
[4] = system: CAKI-1
[5] = system: CCRF-CEM
[6] = system: COLO 205
[7] = system: DU-145
[8] = system: EKVX
[9] = system: HCT-116
[10] = system: HCT-15
[11] = system: HL-60
[12] = system: HOP-62
[13] = system: HOP-92
[14] = system: HT-29
[15] = system: Hs-578T
[16] = system: IGROV-1
[17] = system: K562
[18] = system: KM12
[19] = system: LOX IMVI
[20] = system: M14
[21] = system: MCF7
[22] = system: MDA-MB-231
[23] = system: MDA-MB-435
[24] = system: MDA-N
[25] = system: MOLT-4
[26] = system: Malme-3M
[27] = system: NCI-H226
[28] = system: NCI-H23
[29] = system: NCI-H460
[30] = system: NCI-H522
[31] = system: NCI/ADR-RES
[32] = system: OVCAR-3
[33] = system: OVCAR-4
[34] = system: OVCAR-5
[35] = system: OVCAR-8
[36] = system: PC-3
[37] = system: RPMI-8226
[38] = system: RXF 393
[39] = system: SF-268
[40] = system: SF-295
[41] = system: SF-539
[42] = system: SK-MEL-28
[43] = system: SK-MEL-2
[44] = system: SK-MEL-5
[45] = system: SK-OV-3
[46] = system: SN12C
[47] = system: SNB-19
[48] = system: SNB-75
[49] = system: SR
[50] = system: SW-620
[51] = system: TK-10
[52] = system: U-251
[53] = system: UACC-257
[54] = system: UACC-62
[55] = system: UO-31
[56] = system: HCC 2998
[57] = system: T47D

CN(NC(=O)/C(=C/c1ccc(Cl)cc1)NC(=O)c1ccccc1)c1cn[nH]c(=O)c1Cl
GI50 [1]: > 100 µM (inactive)
GI50 [2]: > 100 µM (inactive)
GI50 [3]: > 100 µM (inactive)
GI50 [4]: > 100 µM (inactive)
GI50 [5]: 30 µM (inactive)
GI50 [6]: > 100 µM (inactive)
GI50 [7]: > 100 µM (inactive)
GI50 [8]: 68.5 µM (inactive)
GI50 [9]: > 100 µM (inactive)
GI50 [10]: > 100 µM
GI50 [11]: 12.7 µM (inactive)
GI50 [12]: 47 µM (inactive)
GI50 [13]: > 100 µM (inactive)
GI50 [14]: > 100 µM (inactive)
GI50 [15]: > 100 µM (inactive)
GI50 [16]: 41.4 µM (inactive)
GI50 [17]: > 100 µM (inactive)
GI50 [18]: 55.1 µM (inactive)
GI50 [19]: 62.7 µM (inactive)
GI50 [20]: > 100 µM (inactive)
GI50 [21]: > 100 µM (inactive)
GI50 [22]: > 100 µM (inactive)
GI50 [23]: > 100 µM (inactive)
GI50 [24]: > 100 µM (inactive)
GI50 [25]: 19.9 µM (inactive)
GI50 [26]: 54.5 µM (inactive)
GI50 [27]: 31.1 µM (inactive)
GI50 [28]: > 100 µM (inactive)
GI50 [29]: > 100 µM (inactive)
GI50 [30]: 17.5 µM (inactive)
GI50 [31]: 34 µM (inactive)
GI50 [32]: 87.1 µM (inactive)
GI50 [33]: > 100 µM (inactive)
GI50 [34]: > 100 µM (inactive)
GI50 [35]: 46.9 µM (inactive)
GI50 [36]: > 100 µM (inactive)
GI50 [37]: 17.4 µM (inactive)
GI50 [38]: > 100 µM (inactive)
GI50 [39]: > 100 µM (inactive)
GI50 [40]: 46.6 µM (inactive)
GI50 [41]: > 100 µM (inactive)
GI50 [42]: > 100 µM (inactive)
GI50 [43]: > 100 µM (inactive)
GI50 [44]: 73.5 µM (inactive)
GI50 [45]: > 100 µM (inactive)
GI50 [46]: > 100 µM (inactive)
GI50 [47]: > 100 µM (inactive)
GI50 [48]: 59 µM (inactive)
GI50 [49]: > 100 µM (inactive)
GI50 [50]: > 100 µM (inactive)
GI50 [51]: > 100 µM (inactive)
GI50 [52]: 40.9 µM (inactive)
GI50 [53]: > 100 µM (inactive)
GI50 [54]: 97.1 µM (inactive)
GI50 [55]: > 100 µM (inactive)

CC(=O)OC[C@]12CCC3[C@@]4(C)CCCC(C)(C)C4CC[C@@]3(C)C1CC(C1=CC(=O)OC1O)O2 (some centres not stated)
GI50 [1]: 0.219 µM (active)
GI50 [2]: 1.85 µM (inactive)
GI50 [4]: 1.72 µM (inactive)
GI50 [5]: 0.271 µM (active)
GI50 [6]: 2.25 µM (inactive)
GI50 [7]: 4.07 µM (inactive)
GI50 [8]: 2.44 µM (inactive)
GI50 [56]: 1.47 µM (inactive)
GI50 [10]: 0.516 µM
GI50 [11]: 0.428 µM (active)
GI50 [12]: 1.9 µM (inactive)
GI50 [14]: 0.692 µM (active)
GI50 [16]: 1.19 µM (inactive)
GI50 [17]: 0.425 µM (active)
GI50 [18]: 1.68 µM (inactive)
GI50 [20]: 1.5 µM (inactive)
GI50 [21]: 0.726 µM (active)
GI50 [22]: 1.26 µM (inactive)
GI50 [24]: 1.16 µM (inactive)
GI50 [25]: 0.252 µM (active)
GI50 [28]: 1.39 µM (inactive)
GI50 [35]: 0.962 µM (active)
GI50 [36]: 1.32 µM (inactive)
GI50 [37]: 0.275 µM (active)
GI50 [38]: 0.382 µM (active)
GI50 [39]: 1.44 µM (inactive)
GI50 [42]: 0.512 µM (active)
GI50 [44]: 1.44 µM (inactive)
GI50 [45]: 1.87 µM (inactive)
GI50 [48]: 1.8 µM (inactive)
GI50 [49]: 0.259 µM (active)
GI50 [50]: 0.375 µM (active)
GI50 [57]: 1.32 µM (inactive)
GI50 [51]: 1.75 µM (inactive)
GI50 [54]: 1.53 µM (inactive)

CC(C)c1cc(C(C)C)c(B(c2ccccc2)c2ccccc2)c(C(C)C)c1B(c1ccccc1)c1ccccc1
GI50 [2]: > 100 µM (inactive)
GI50 [3]: > 100 µM (inactive)
GI50 [6]: > 100 µM (inactive)
GI50 [7]: > 100 µM (inactive)
GI50 [8]: > 100 µM (inactive)
GI50 [9]: > 100 µM (inactive)
GI50 [10]: > 100 µM
GI50 [12]: > 100 µM (inactive)
GI50 [13]: > 100 µM (inactive)
GI50 [14]: > 100 µM (inactive)
GI50 [15]: > 100 µM (inactive)
GI50 [16]: > 100 µM (inactive)
GI50 [19]: > 100 µM (inactive)
GI50 [20]: > 100 µM (inactive)
GI50 [22]: > 100 µM (inactive)
GI50 [24]: > 100 µM (inactive)
GI50 [25]: > 100 µM (inactive)
GI50 [26]: > 100 µM (inactive)
GI50 [29]: > 100 µM (inactive)
GI50 [30]: > 100 µM (inactive)
GI50 [31]: > 100 µM (inactive)
GI50 [32]: > 100 µM (inactive)
GI50 [33]: > 100 µM (inactive)
GI50 [35]: > 100 µM (inactive)
GI50 [36]: > 100 µM (inactive)
GI50 [39]: > 100 µM (inactive)
GI50 [40]: > 100 µM (inactive)
GI50 [43]: > 100 µM (inactive)
GI50 [44]: > 100 µM (inactive)
GI50 [45]: > 100 µM (inactive)
GI50 [46]: > 100 µM (inactive)
GI50 [48]: > 100 µM (inactive)
GI50 [49]: > 100 µM (inactive)
GI50 [50]: > 100 µM (inactive)
GI50 [57]: > 100 µM (inactive)
GI50 [53]: > 100 µM (inactive)
GI50 [54]: > 100 µM (inactive)

— ChEMBL document CHEMBL1201862, “PubChem BioAssay data set” (2004)
